The subject of assay [1] is Escherichia coli DH5a. The assay can be described thus: microbe, parasite or virus in culture. The settings on record: 16 h.
Assay [2] concerns Enterococcus faecalis ATCC29212. The assay is described as follows: microbe, parasite or virus in culture. The settings on record: ATCC29212, 16 h.
Assay [3] relates to P. aeruginosa strain PAO1. The assay can be described thus: microbe, parasite or virus in culture. Particulars: Pseudomonas aeruginosa, PAO1, 16 h, read-out: MIC for PAO1.
In assay [4] the test system is Serratia marcescens ATCC39006. The assay can be described thus: microbe, parasite or virus in culture. Particulars: ATCC39006, 16 h.
In assay [5] the test system is P. aeruginosa strain PA14. The assay can be described thus: microbe, parasite or virus in culture. The settings on record: Pseudomonas aeruginosa.
Assay [6] has as its system P. aeruginosa strain PA14. The settings on record: Table S5.
For assay [7], the system named is P. aeruginosa strain PAO1.

≈ marks a conversion by molar mass, not a printed value. Read-outs that look alike come from different tables or passages of the source.

In the case of `O=C(O)c1cn(C2CC2)c2cc(N3CCNCC3)c(F)cc2c1=O` [Ciprofloxacin, ciprofloxacin], the MIC in assay [1] turned out to be 0.0078 µg/mL (≈ 0.0235 µM); in assay [2] it was 0.5 µg/mL (≈ 1.51 µM); in assay [3], 0.125 µg/mL (≈ 0.377 µM); in assay [4], 0.0625 µg/mL (≈ 0.189 µM); in assay [5] (PA14, 16 h, read-out: MIC for PA14), 0.0625 µg/mL; in assay [5] (PA14, read-out: MIC for PA14), 0.19 µM. Moreover, the “PA14 MIC” value in assay [6] is reported as 0.0625 µg/mL. Besides, the “MIC for PAO1” value in assay [7] (Table 3, data combined from multiple experiments, standard medium) was determined as 0.38 µM. The “PAO1 MIC” value in assay [7] (Table S5, altered linking region between peptide and cephalosporin) was 0.125 µg/mL.

For the origin of these results see publication PMC12447755, “β-Lactamase cleavable antimicrobial peptide–drug conjugates” (Chemical Science, 2025).
